Measured values taken from patent publication US20250312303A1, “ANTICANCER AGENT” (AGC Inc., priority 2022, published 2025).

Experiments:
[1] = test system: PANC-1 cells; assay: SRB assay, relative cell proliferation rate of PANC-1 cells; assay type: cell-based
Excerpt: (§1) HeLa cells and PANC-1 cells were used as the cancer cells. Both these cells were obtained from ATCC. Further, NHDF cells obtained from Lonza Group Ltd. were used as control non-cancer cells. The culture mediums used were Dulbecco's Modified Eagle Medium (D-MEM, manufactured by FUJIFILM Wako Pure Chemical Corporation) to which 10% FBS had been added (hereinafter also referred to as the “normal medium”), a medium prepared by removing leucine from D-MEM and adding 10% FBS (hereinafter also referred to as the “Leu-removed medium”), and a medium prepared by removing valine from D-MEM and adding 10% FBS (hereinafter also referred to as the “Val-removed medium”).
(§2) The culture cells were inoculated into a 96-well culture plate at a concentration of 3×10^3 cells/well, and following adhesion, were cultured for 24, 48 or 72 hours in the normal medium, the Leu-removed medium or Val-removed medium, or a medium prepared by adding the fluorine-containing amino acid to the Leu-removed medium or Val-removed medium in an amount sufficient to achieve a final concentration of 0.8 mM. Following culturing, the cell proliferation rate was measured by SRB assay. As a control, the cell proliferation rate was measured in a similar manner for cells having a culture time of 0 hours.
(§3) The SRB assays were conducted in the following manner. Following cell culturing, the medium was removed, and 10% (wt/vol) of trichloroacetic acid was added to fix the cells. Subsequently, the fixed cells were washed three times with tap water, and then stained by adding a solution containing 0.4% (wt/vol) of sulforhodamine B dissolved in 1% acetic acid. Following subsequent washing three times with a 1% acetic acid solution, a 10 mM Tris solution was added, and the light absorbance at 540 nm was measured. The 540 nm absorbance value for each sample was used to indicate the cell quantity, and for each sample, the relative cell proliferation rate (%) at a culture time of X hours was determined using the formula below.
(§4) SRB assays were conducted in the same manner as Example 1 with the exceptions of using a medium prepared by removing glutamine from D-MEM and adding 10% FBS (hereinafter also referred to as the “Gln-removed medium”) as the culture medium instead of the Leu-removed medium, using monofluoroglutamine ((2S,4S)Gln(1F) or (2S,4R)Gln(1F)) as the fluorine-containing amino acid, and altering the amount of monofluoroglutamine added to the Gln-removed medium to an amount sufficient to achieve a final concentration of 4 mM.
(§5) SRB assays were conducted in the same manner as Example 1 with the exceptions of using the Gln-removed medium as the culture medium instead of the Leu-removed medium, using difluoroglutamine as the fluorine-containing amino acid, and altering the amount of difluoroglutamine added to the Gln-removed medium to an amount sufficient to achieve a final concentration of 4 mM.

[2] = test system: NHDF cells; assay: SRB assay, relative cell proliferation rate of NHDF cells (control non-cancer cells); assay type: cell-based
Excerpt: as §1, §2, §3, §4

[3] = test system: HeLa cells; assay: SRB assay, relative cell proliferation rate of HeLa cells; assay type: cell-based
Excerpt: as §1, §2, §3, §4, §5

[4] = test system: HeLa cells; assay: Tumor volume of subcutaneously transplanted HeLa cells in SCID/SCID mice; assay type: in vivo; details: for Tumor volume: 5 mg/kg intraperitoneally every day for two weeks starting day 7; for Increase in the size of the tumor tissue compared with the control group: HeLa tumor-bearing SCID/SCID mice, 5 mg/kg intraperitoneally every day for two weeks, result in words
Description: First, 0.1 mL samples of an HeLa cell solution with a concentration of 1.0×10^7 cells/mL were transplanted beneath the skin of SCID/SCID (immunodeficient) mice. Starting 7 days after the HeLa cell transplantation, PBS (control group), leucine (5 mg/kg mouse bodyweight) or trifluoroleucine (5 mg/kg mouse bodyweight) was administered intraperitoneally every day for two weeks. The growth of the tumor tissue was observed over time from the time of HeLa transplantation, and the tumor volume (mm^3) was calculated. The tumor volume (mm^3) was calculated from the major diameter (mm) of the tumor tissue and the minor diameter (mm) of the tumor tissue using the formula shown below.
With the exceptions of using monofluoroisoleucine or 5-fluoro-5-methyl-norleucine (CAS RN: 1361228-49-0) instead of the trifluoroleucine, and starting the administration of the PBS, 5-fluoro-5-methyl-norleucine or monofluoroisoleucine 11 days after rather than 7 days after the HeLa cell transplantation, the same procedure as (1) above was used to measure the volume (mm^3) of the tumor formed by the subcutaneously transplanted HeLa cells over time.
(§6) First, 0.1 mL samples of an HeLa cell solution with a concentration of 1.0×10^7 cells/mL were transplanted beneath the skin of SCID/SCID (immunodeficient) mice. Starting 7 days after the HeLa cell transplantation, PBS (control group), glutamine (Gln) (5 mg/kg mouse bodyweight), (2S,4S)Gln(1F) (5 mg/kg mouse bodyweight) or (2S,4R)Gln(1F) (5 mg/kg mouse bodyweight) was administered intraperitoneally every day for two weeks. The growth of the tumor tissue was observed over time from the time of HeLa cell transplantation, and the tumor volume (mm^3) was calculated. The tumor volume (mm^3) was determined in the same manner as that described in Example 2.
as §6, with “mouse bodyweight), or di-F-Gln(F)” for “mouse bodyweight), (2S,4S)Gln(1F) (5 mg/kg mouse bodyweight) or (2S,4R)Gln(1F)”, “bodyweight), or di-F-Gln(F) (5 mg/kg” for “bodyweight) or (2S,4R)Gln(1F) (5 mg/kg”, “of HeLa transplantation, and” for “of HeLa cell transplantation, and”

[5] = Gln-removed medium + 4 mM amino acid, culture time 24 h
[6] = Gln-removed medium + 4 mM amino acid, culture time 48 h
[7] = Gln-removed medium + 4 mM amino acid, culture time 72 h
[8] = 7 days since HeLa cell transplantation
[9] = 14 days since HeLa cell transplantation
[10] = 21 days since HeLa cell transplantation
[11] = Leu-removed medium + 0.8 mM amino acid, culture time 24 h
[12] = Leu-removed medium + 0.8 mM amino acid, culture time 48 h
[13] = Leu-removed medium + 0.8 mM amino acid, culture time 72 h, hydrochloride

## NC(=O)[C@@H](F)C[C@H](N)C(=O)O [(2S,4S)-Gln(1F)]
[1]; [5]
  Relative cell proliferation rate of PANC-1 cells: 31.5%
[1]; [6]
  Relative cell proliferation rate of PANC-1 cells: 27.3%
[1]; [7]
  Relative cell proliferation rate of PANC-1 cells: 25.7%
[2]; [5]
  Relative cell proliferation rate of NHDF cells: 157.4%
[2]; [6]
  Relative cell proliferation rate of NHDF cells: 129.4%
[2]; [7]
  Relative cell proliferation rate of NHDF cells: 82.9%
[3]; [5]
  Relative cell proliferation rate of HeLa cells: 29.2%
[3]; [6]
  Relative cell proliferation rate of HeLa cells: 32.1%
[3]; [7]
  Relative cell proliferation rate of HeLa cells: 25.0%
[4]; [8]
  Tumor volume: 72.1 mm^3
[4]; 9 days since HeLa cell transplantation
  Tumor volume: 96.9 mm^3
[4]; 11 days since HeLa cell transplantation
  Tumor volume: 149.0 mm^3
[4]; [9]
  Tumor volume: 207.1 mm^3
[4]; 16 days since HeLa cell transplantation
  Tumor volume: 242.3 mm^3
[4]; 18 days since HeLa cell transplantation
  Tumor volume: 357.2 mm^3
[4]; [10]
  Tumor volume: 439.9 mm^3
[4]
  Increase in the size of the tumor tissue compared with the control group: dramatically inhibited

## CC(CC(N)C(=O)O)C(F)(F)F.Cl (centres unmarked) [Leu(3F), 2-amino-5,5,5-trifluoro-4-methylpentanoic acid hydrochloride]
[1]; [11]
  Relative cell proliferation rate of PANC-1 cells: 77.1%
[1]; [12]
  Relative cell proliferation rate of PANC-1 cells: 87.0%
[1]; [13]
  Relative cell proliferation rate of PANC-1 cells: 75.5%
[2]; [11]
  Relative cell proliferation rate of NHDF cells: 138.5%
[2]; [12]
  Relative cell proliferation rate of NHDF cells: 138.2%
[2]; [13]
  Relative cell proliferation rate of NHDF cells: 185.6%
[2]; Leu-removed medium + 0.8 mM amino acid, culture time 72 h, listed as trifluoroleucine, hydrochloride
  Relative cell proliferation rate of NHDF cells: ~200%
[3]; [11]
  Relative cell proliferation rate of HeLa cells: 78.5%
[3]; [12]
  Relative cell proliferation rate of HeLa cells: 91.6%
[3]; [13]
  Relative cell proliferation rate of HeLa cells: 89.5%
[4]; [8]
  Tumor volume: 135.6 mm^3
[4]; 10 days since HeLa cell transplantation
  Tumor volume: 169.4 mm^3
[4]; 12 days since HeLa cell transplantation
  Tumor volume: 204.1 mm^3
[4]; [9]
  Tumor volume: 200.6 mm^3
[4]; 17 days since HeLa cell transplantation
  Tumor volume: 315.3 mm^3
[4]; 19 days since HeLa cell transplantation
  Tumor volume: 460.2 mm^3
[4]; [10]
  Tumor volume: 704.0 mm^3
[4]
  Increase in the size of the tumor tissue compared with the control group: dramatically inhibited
